# Key:
# [1] = Pharmacokinetic profile of MAK683 in sequential blood samples, Phase I/II study; type: in vivo, human
# Text: (§1) This study is a multicenter, open label, study to establish the maximum tolerated dose (MTD) and/or recommended phase 2 dose (RP2D) and to evaluate the safety, antitumor activity and pharmacokinetic (PK) profile of MAK683 (Compound (1) of MAK683 (Compound (1) in subjects with advanced malignancies such as Diffuse Large B cell Lymphoma (DLBCL), nasopharyngeal carcinoma (NPC) or other advanced solid tumors for whom no further effective standard treatment is available. The patients will be administered MAK683 single agent orally until they experience unacceptable toxicity, progressive disease and/or treatment discontinuation at the discretion of the investigator or patient or withdrawal of consent. The phase I part plans to enroll patients with relapsed/refractory DLBCL, advanced/ metastatic nasopharyngeal carcinoma with presence of p16/CDKN2A gene and other solid tumors including castration-resistant prostate cancer, gastric cancer, OCCC, sarcoma. All patients enrolled in this part of the study will receive escalating oral doses of MAK683 in fasted condition, unless significant GI toxicity is observed, in which case dosing with moderate-fat meals may be assessed. The starting dose and regimen for the MAK683 first-in-man clinical study is about 10 mg QD. Escalation will continue to about 20 mg, about 40 mg, about 80 mg, about 120 mg, about 160 mg, about 160 mg, about 240 mg, about 300 mg, about 500 mg or about 800 mg or until the MTD is reached or a RP2D is established based on emerging data.
# (§2) MAK683 was administered fasted once (QD) or twice daily (BID) on a continuous schedule in 28-day treatment cycles. The pharmacokinetic (PK) profile of MAK683 was assessed in sequential blood samples on Days 1, 8 and/or 15 of Cycles 1-6. MAK683 pharmacodynamic activity in Cycle 1, measured by change in H3K27me3, was evaluated in peripheral blood monocytes on Days 1, 8, and 15 by flow cytometry and in tumor biopsies at baseline and Day 15 by H-score.
# H3K27me3 [2] = assay: Pharmacodynamic activity: change in H3K27me3 in peripheral blood monocytes by flow cytometry; type: in vivo, human
# Protocol: as §2
# H3K27me3 [3] = assay: Pharmacodynamic activity: H3K27me3 in tumor biopsies by H-score; type: in vivo, human; settings: paired baseline-Day 15 tumor biopsies; diffuse large B-cell lymphoma (n=4) or sarcoma (n=6)
# Protocol: as §2
# [4] = tested on: advanced malignancies (DLBCL, nasopharyngeal carcinoma, other advanced solid tumors); assay: Antitumor activity, overall response rate (ORR) in subjects with advanced malignancies; type: in vivo, human; settings: local assessment per Cheson 2014, RECIST v1.1 and PCWG2
# Text: as §1, with “Escalation will continue to about 20 mg, about 40 mg, about 80 mg, about 120 mg, about 160 mg, about 160 mg, about 240 mg, about 300 mg, about 500 mg or about 800 mg or until the MTD is reached or a RP2D is established based on emerging data.” left out
# [5] = Safety, adverse events in Phase I/II study; type: in vivo; settings: patients with advanced malignancies, oral MAK683
# Text: as §1, with “Escalation will continue to about 20 mg, about 40 mg, about 80 mg, about 120 mg, about 160 mg, about 160 mg, about 240 mg, about 300 mg, about 500 mg or about 800 mg or until the MTD is reached or a RP2D is established based on emerging data.” left out
compound,measurement,setting,value
"Cc1ncccc1-c1cnc(NCc2c(F)ccc3c2CCO3)n2cnnc12 [MAK683, N-((5-fluoro-2,3-dihydrobenzofuran-4-yl)methyl)-8-(2-methylpyridin-3-yl)-[1,2,4]triazolo[4,3-c]pyrimidin-5-amine]",PK exposure (Cmax and AUC) dose proportionality,[1]; 800 mg QD,over-proportional
same,PK exposure (Cmax and AUC) dose proportionality,[1]; 10-500 mg QD and 60-450 mg BID,variable and broadly dose-proportional
same,accumulation after multiple doses (Racc),[1]; after multiple doses,0.8-2.3
same,half-life,"[1]; human, blood, oral, across cohorts, unchanged after multiple doses, read-out: Apparent terminal half-life (geometric mean)",2.5 to 5.2 h
same,Tmax,"[1]; human, blood, patients, oral, fasted, 10-800 mg QD or 60-450 mg BID, read-out: median Tmax",~1 h
same,Time to steady-state,"[1]; patients, QD or BID continuous dosing",~3 days
same,H3K27me3/H3 ratio change from baseline in peripheral monocytes,"H3K27me3 [2]; Cycle 1, Days 1, 8, 15, across doses",substantial on-treatment reductions from baseline
same,"Maximum percentage reduction of H3K27me3/H3 ratio, relation to exposure",H3K27me3 [2]; peripheral monocytes,proportional to cumulative MAK683 AUC
same,patients with H3K27me3 H-score reductions from baseline >40,H3K27me3 [3],7/10
same,positive endpoint: improved overall response rate (ORR),[4],met at least one of the above endpoints
same,adverse events,[5],mild to moderate and did not lead to discontinuation
